Assay results reported in patent US11279714B2, “Anti-infective compounds” (priority 2014, dated 2022).
Values after ≈ are worked out from the molar mass of the structure shown.

Key:
[1] = test system: Raw 264.7 cells infected with H37Rv-GFP; assay: microbe, parasite or virus in culture; format: cell-based, M. tuberculosis; conditions: Mycobacterium tuberculosis, H37RV, 120 h; read-out: QIM (MIC50)
[2] = test system: M. tuberculosis H37Rv expressing the green fluorescent protein (H37Rv-GFP); assay: microbe, parasite or virus in culture; format: cell-based; conditions: Mycobacterium tuberculosis, H37RV, 120 h; read-out: QUM (MIC50)

Cc1nc2cc(NC(=O)c3sc4nc(N5CCOCC5)sc4c3-c3ccccc3)ccc2o1 [Compound 166]
melting point: 285 °C
MIC50 [1]: > 20 µM
MIC50 [2]: > 20 µM

Cc1nc2cc(NC(=O)c3cc4sc(N(C)CCO)nc4s3)ccc2o1 [Compound 201]
melting point: 226.3 °C
MIC50 [1]: 1 to 20 µM (≈ 0.388 to 7.77 µg/mL)
MIC50 [2]: < 1 µM

COc1ccc(CNC(=O)c2cc3sc(N4CCCCC4)nc3s2)cc1 [Compound 59]
melting point: 142 °C
MIC50 [1]: > 20 µM
MIC50 [2]: > 20 µM

COc1ccc(NC(=O)c2cc3sc(N4CCC(Oc5ccccc5)CC4)nc3s2)cc1 [Compound 106]
melting point: 225 °C
MIC50 [1]: < 1 µM
MIC50 [2]: > 20 µM

Cc1cnc(-c2ccc(NC(=O)c3cc4sc(N5CCOCC5)nc4s3)cc2)o1 [Compound 154]
melting point: 287.3 °C
MIC50 [1]: < 1 µM
MIC50 [2]: < 1 µM

O=C(Nc1ccccc1)c1cc2nc(N3CCCCC3)sc2s1 [Compound 25]
melting point: 222.6 °C
MIC50 [1]: 1 to 20 µM (≈ 0.343 to 6.87 µg/mL)
MIC50 [2]: > 20 µM

CC(=O)c1ccc(NC(=O)c2cc3sc(N4CCOCC4)nc3s2)cc1 [Compound 188]
melting point: 248 °C
MIC50 [1]: < 1 µM
MIC50 [2]: < 1 µM

COc1ccc(NCc2cc3sc(N4CCCCC4)nc3s2)cc1 [Compound 69]
melting point: 105 °C
MIC50 [1]: > 20 µM
MIC50 [2]: > 20 µM

O=C(Nc1ccc(Cl)cc1)c1cc2nc(N3CCCCC3)sc2s1 [Compound 29]
melting point: 230 °C
MIC50 [1]: 1 to 20 µM (≈ 0.378 to 7.56 µg/mL)
MIC50 [2]: 1 to 20 µM (≈ 0.378 to 7.56 µg/mL)

O=C(Nc1ccc(-c2cc[nH]n2)cc1)c1cc2sc(N3CCOCC3)nc2s1 [Compound 156]
melting point: 319 °C
MIC50 [1]: < 1 µM
MIC50 [2]: 1 to 20 µM (≈ 0.412 to 8.23 µg/mL)

O=C(Nc1ccc(OCc2ccccc2)cc1)c1cc2nc(N3CCCCC3)sc2s1 [Compound 11]
melting point: 223 °C
MIC50 [1]: > 20 µM
MIC50 [2]: > 20 µM

O=C(Nc1ccc(-c2ccn(C3CCCCO3)n2)cc1)c1cc2sc(N3CCOCC3)nc2s1 (stereo not drawn) [Compound 155]
melting point: 293 °C
MIC50 [1]: < 1 µM
MIC50 [2]: > 20 µM

COc1ccc(CNC(=O)c2cc3nc(N4CCCCC4)sc3s2)cc1 [Compound 7]
melting point: 179 °C
MIC50 [1]: > 20 µM
MIC50 [2]: > 20 µM

O=C(Nc1ccc(OC(F)(F)F)cc1)c1cc2sc(N3CCCCC3)nc2s1 [Compound 58]
melting point: 239 °C
MIC50 [1]: < 1 µM
MIC50 [2]: 1 to 20 µM (≈ 0.427 to 8.55 µg/mL)

Cc1nc2cc(NC(=O)N3CCc4nc(N5CCOCC5)sc4C3)ccc2o1 [Compound 187]
melting point: 104 °C
MIC50 [1]: > 20 µM
MIC50 [2]: > 20 µM

O=C(Nc1ccc(-c2ccccc2)cc1)c1cc2sc(N3CCCCC3)nc2s1 [Compound 39]
melting point: 231.1 °C
MIC50 [1]: < 1 µM
MIC50 [2]: > 20 µM

COc1ccc(NC(=O)c2cc3sc(N4CCC(C(=O)N5CCOCC5)CC4)nc3s2)cc1 [Compound 125]
melting point: 268 °C
MIC50 [1]: < 1 µM
MIC50 [2]: < 1 µM

COc1ccc(NC(=O)c2cc3sc(N4CCCC(N)C4)nc3s2)cc1 (stereo not drawn) [Compound 119]
melting point: 232 °C
MIC50 [1]: < 1 µM
MIC50 [2]: > 20 µM

O=C(Nc1ccc(Oc2ccc(Cl)cc2)cc1)c1cc2sc(N3CCOCC3)nc2s1 [Compound 146]
melting point: 225 °C
MIC50 [1]: < 1 µM
MIC50 [2]: 1 to 20 µM (≈ 0.472 to 9.44 µg/mL)

COCn1c(N2CCOCC2)nc2sc(C(=O)Nc3ccc4oc(C)nc4c3)cc21 [Compound 179]
melting point: 117.2 °C
MIC50 [1]: > 20 µM
MIC50 [2]: > 20 µM

Cc1nc2cc(NC(=O)c3sc4nc(N5CCOCC5)sc4c3C)ccc2o1 [Compound 163]
melting point: 226 °C
MIC50 [1]: > 20 µM
MIC50 [2]: > 20 µM

Cn1ncc2ccc(NC(=O)c3cc4sc(N5CCOCC5)nc4s3)cc21 [Compound 131]
melting point: 288 °C
MIC50 [1]: > 20 µM
MIC50 [2]: > 20 µM

COc1ccc(C(=O)Nc2cc3sc(N4CCCCC4)nc3s2)cc1 [Compound 98]
melting point: 92 °C
MIC50 [1]: > 20 µM
MIC50 [2]: > 20 µM

Cn1cnc2ccc(NC(=O)c3cc4sc(N5CCOCC5)nc4s3)cc21 [Compound 117]
melting point: 314 °C
MIC50 [1]: > 20 µM
MIC50 [2]: > 20 µM

Cc1nc2cc(NC(=O)c3sc4nc(N5CCOCC5)sc4c3Br)ccc2o1 [Compound 157]
melting point: 269 °C
MIC50 [1]: > 20 µM
MIC50 [2]: > 20 µM

COc1ccc(NC(=O)c2cc3sc(NCc4ccc(OC)nc4)nc3s2)cc1 [Compound 104]
melting point: 230.9 °C
MIC50 [1]: < 1 µM
MIC50 [2]: < 1 µM

O=C(Nc1ccc(O)cc1)c1cc2sc(N3CCCCC3)nc2s1 [Compound 97]
melting point: 246 °C
MIC50 [1]: 1 to 20 µM (≈ 0.359 to 7.19 µg/mL)
MIC50 [2]: 1 to 20 µM (≈ 0.359 to 7.19 µg/mL)

COc1ccc(NC(=O)c2cc3sc(N4CCC4)nc3s2)cc1 [Compound 80]
melting point: 256 °C
MIC50 [1]: < 1 µM
MIC50 [2]: 1 to 20 µM (≈ 0.345 to 6.91 µg/mL)

Cc1nnc(-c2ccc(NC(=O)c3cc4sc(N5CCC(O)CC5)nc4s3)cc2)o1 [Compound 123]
melting point: 334.4 °C
MIC50 [1]: > 20 µM
MIC50 [2]: > 20 µM

O=C1Cc2cc(NC(=O)c3cc4nc(N5CCCCC5)sc4s3)ccc2N1 [Compound 23]
melting point: 260 °C
MIC50 [1]: > 20 µM
MIC50 [2]: > 20 µM

CN(C(=O)c1cc2nc(N3CCCCC3)sc2s1)c1ccc(F)c(F)c1 [Compound 20]
melting point: 170.1 °C
MIC50 [1]: > 20 µM
MIC50 [2]: 1 to 20 µM (≈ 0.393 to 7.87 µg/mL)

O=C(Nc1cc(-c2ccccc2)[nH]n1)c1cc2sc(N3CCOCC3)nc2s1 [Compound 160]
melting point: 305 °C
MIC50 [1]: < 1 µM
MIC50 [2]: > 20 µM

O=C(Nc1ccc(CN2CCN(c3ccc(Cl)cc3)CC2)cc1)c1cc2sc(N3CCOCC3)nc2s1 [Compound 199]
melting point: 249.9 °C
MIC50 [1]: < 1 µM
MIC50 [2]: 1 to 20 µM (≈ 0.554 to 11.1 µg/mL)

COc1ccc(NC(=O)c2ccc3nc(N4CCCCC4)ccc3c2)cc1 [Compound 17]
melting point: 209 °C
MIC50 [1]: > 20 µM
MIC50 [2]: 1 to 20 µM (≈ 0.361 to 7.23 µg/mL)

COc1ccc(NC(=O)c2cc3sc(N)nc3s2)cc1 [Compound 64]
melting point: 260 °C
MIC50 [1]: 1 to 20 µM (≈ 0.305 to 6.11 µg/mL)
MIC50 [2]: > 20 µM

COC(=O)C1CCN(C(=O)c2cc3sc(N4CCCCC4)nc3s2)CC1 [Compound 56]
melting point: 136 °C
MIC50 [1]: 1 to 20 µM (≈ 0.394 to 7.87 µg/mL)
MIC50 [2]: 1 to 20 µM (≈ 0.394 to 7.87 µg/mL)

CCOC(=O)c1ccc(NC(=O)c2cc3sc(N4CCOCC4)nc3s2)cc1 [Compound 108]
melting point: 274 °C
MIC50 [1]: < 1 µM
MIC50 [2]: 1 to 20 µM (≈ 0.418 to 8.35 µg/mL)

N#Cc1ccc(NC(=O)c2cc3nc(N4CCCCC4)sc3s2)cc1 [Compound 32]
melting point: 163 °C
MIC50 [1]: < 1 µM
MIC50 [2]: 1 to 20 µM (≈ 0.368 to 7.37 µg/mL)

CC1CCN(c2ccc(NC(=O)c3cc4sc(N5CCOCC5)nc4s3)cc2)CC1 [Compound 194]
melting point: 278 °C
MIC50 [1]: < 1 µM
MIC50 [2]: 1 to 20 µM (≈ 0.443 to 8.85 µg/mL)

COc1ccc(NC(=O)c2ccc3sc(N4CCCCC4)nc3c2)cc1 [Compound 70]
melting point: 222 °C
MIC50 [1]: > 20 µM
MIC50 [2]: > 20 µM

COc1ccc(NC(=O)c2cc3sc(N4CCC(F)(F)CC4)nc3s2)cc1 [Compound 72]
melting point: 263.5 °C
MIC50 [1]: < 1 µM
MIC50 [2]: 1 to 20 µM (≈ 0.409 to 8.19 µg/mL)

O=C(Nc1ccccc1)c1cc2sc(N3CCCCC3)nc2s1 [Compound 46]
melting point: 259.1 °C
MIC50 [1]: < 1 µM
MIC50 [2]: 1 to 20 µM (≈ 0.343 to 6.87 µg/mL)

Cn1cc2ccc(NC(=O)c3cc4sc(N5CCOCC5)nc4s3)cc2n1 [Compound 132]
melting point: 313.7 °C
MIC50 [1]: < 1 µM
MIC50 [2]: > 20 µM

Cc1nnc(-c2ccc(NC(=O)c3cc4sc(N5CCOCC5)nc4s3)cc2Cl)o1 [Compound 148]
melting point: 248 °C
MIC50 [1]: > 20 µM
MIC50 [2]: > 20 µM

COc1ccc(NC(=O)c2cc3sc(N4CCOCC4)nc3s2)cc1 [Compound 66]
melting point: 248.8 °C
MIC50 [1]: < 1 µM
MIC50 [2]: 1 to 20 µM (≈ 0.375 to 7.51 µg/mL)

O=C(Nc1ccc2ncoc2c1)c1cc2sc(N3CCOCC3)nc2s1 [Compound 101]
melting point: 281.8 °C
MIC50 [1]: < 1 µM
MIC50 [2]: 1 to 20 µM (≈ 0.386 to 7.73 µg/mL)

COc1ccc(NC(=O)c2cc3sc(NC4CCCCC4)nc3s2)cc1 [Compound 79]
melting point: 231 °C
MIC50 [1]: < 1 µM
MIC50 [2]: > 20 µM

Cc1nc2cc(NC(=O)c3cn4nc(N5CCOCC5)sc4n3)ccc2o1 [Compound 189]
melting point: 311 °C
MIC50 [1]: > 20 µM
MIC50 [2]: > 20 µM

Cc1nc2cc(NC(=O)N3CCc4sc(N5CCOCC5)cc4C3)ccc2o1 [Compound 191]
melting point: 171.7 °C
MIC50 [1]: > 20 µM
MIC50 [2]: > 20 µM

COc1ccc(NC(=O)c2ccc3nc(N4CCCCC4)sc3c2)cc1 [Compound 5]
melting point: 214 °C
MIC50 [1]: > 20 µM
MIC50 [2]: > 20 µM

O=C(Nc1ccc(Cl)cc1)c1cc2sc(N3CCCCC3)nc2s1 [Compound 45]
melting point: 275.2 °C
MIC50 [1]: < 1 µM
MIC50 [2]: 1 to 20 µM (≈ 0.378 to 7.56 µg/mL)

Cc1nc2cc(NC(=O)c3cc4sc(N5CCC(COc6ccc(Cl)cc6)CC5)nc4s3)ccc2o1 [Compound 195]
melting point: 256 °C
MIC50 [1]: < 1 µM
MIC50 [2]: > 20 µM

O=C(c1cc2sc(N3CCOCC3)nc2s1)N1CCC(Cc2ccc(Cl)cc2)CC1 [Compound 173]
melting point: 167.2 °C
MIC50 [1]: > 20 µM
MIC50 [2]: > 20 µM

O=C(Nc1ccc(Oc2ccccc2)cc1)c1cc2nc(N3CCCCC3)sc2s1 [Compound 15]
melting point: 225.8 °C
MIC50 [1]: > 20 µM
MIC50 [2]: > 20 µM

COc1ccc(NC(=O)c2cc3sc(N4CCC(C(=O)N(C)C)CC4)nc3s2)cc1 [Compound 127]
melting point: 273.4 °C
MIC50 [1]: < 1 µM
MIC50 [2]: < 1 µM

CCC1CN(c2nc3sc(C(=O)Nc4ccc5oc(C)nc5c4)cc3s2)CCO1 (stereo not drawn) [Compound 153]
melting point: 214 °C
MIC50 [1]: < 1 µM
MIC50 [2]: < 1 µM

CCN(CC)C(=O)c1cc2sc(N3CCCCC3)nc2s1 [Compound 57]
melting point: 84 °C
MIC50 [1]: 1 to 20 µM (≈ 0.323 to 6.47 µg/mL)
MIC50 [2]: 1 to 20 µM (≈ 0.323 to 6.47 µg/mL)
